# Data published in patent EP4043444A1, “SUBSTITUTED ISOXAZOLINE DERIVATIVES” (priority 2021, dated 2022).
# How the values were obtained:
# Assay type in all cases: in vivo
# [1] = test system: Tobacco Budworm (Heliothis virescens); experiment: Tobacco Budworm control, 96-well microtiter plates with insect diet and eggs; conditions: 2500ppm, sprayed onto insect diet, 5 days, in comparison with untreated controls; for mortality at 2500 ppm: Heliothis virescens, 120 h, read-out: mortality (Egg and larval mortality)
# Procedure: For evaluating control of Tobacco Budworm, the test unit consisted of 96-well-microtiter plates containing an insect diet and 15-25 H. virescens eggs. The compounds were formulated using a solution containing 75% v/v water and 25% v/v DMSO. Different concentrations of formulated compounds were sprayed onto the insect diet at 10µl, using a custom-built micro atomizer, at two replications. After application, microtiter plates were incubated at about 28 + 1°C and about 80 + 5 % relative humidity for 5 days. Egg and larval mortality was then visually assessed.
# [2] = test system: Green Peach Aphid (Myzus persicae) (mixed life stages); experiment: Green Peach Aphid control through systemic means, artificial diet under artificial membrane; conditions: for mortality at 2500 ppm: Myzus persicae, 72 h, read-out: mortality (Aphid mortality)
# Excerpt: For evaluating control of Green Peach Aphid through systemic means the test unit consisted of 96-well-microtiter plates containing liquid artificial diet under an artificial membrane. The compounds were formulated using a solution containing 75% v/v water and 25% v/v DMSO. Different concentrations of formulated compounds were pipetted into the aphid diet, using a custom-built pipette, at two replications. After application, 5 - 8 adult aphids were placed on the artificial membrane inside the microtiter plate wells. The aphids were then allowed to suck on the treated aphid diet and incubated at about 23 + 1°C and about 50 + 5 % relative humidity for 3 days. Aphid mortality and fecundity was then visually assessed.
# [3] = test system: Boll weevil (Anthonomus grandis); experiment: Boll weevil control, 96-well microtiter plates with insect diet and eggs; conditions: for mortality at 2500 ppm: Anthonomus grandis, 120 h, read-out: mortality (Egg and larval mortality)
# Procedure: For evaluating control of boll weevil, the test unit consisted of 96-well-microtiter plates containing an insect diet and 5-10 A. grandis eggs.
# The compounds were formulated using a solution containing 75% v/v water and 25% v/v DMSO. Different concentrations of formulated compounds were sprayed onto the insect diet at 5µl, using a custom-built micro atomizer, at two replications.
# After application, microtiter plates were incubated at about 25 + 1°C and about 75 + 5 % relative humidity for 5 days. Egg and larval mortality were then visually assessed.
# [4] = test system: Yellow Fever Mosquito (Aedes aegypti); experiment: whole plant or invertebrate; conditions: 48 h, 2 days, in comparison with untreated controls, read-out: mortality (Larval mortality)
# Procedure: For evaluating control of Yellow Fever Mosquito the test unit consisted of 96-well-microtiter plates containing 200µl of tap water per well and 5-15 freshly hatched A. aegypti larvae. The active compounds were formulated using a solution containing 75% (v/v) water and 25% (v/v) DMSO. Different concentrations of formulated compounds or mixtures were sprayed onto the insect diet at 2.5µl, using a custom-built micro atomizer, at two replications.
# After application, microtiter plates were incubated at 28 + 1°C, 80 + 5 % RH for 2 days. Larval mortality was then visually assessed.
Compound,mortality (Egg and larval mortality) [1],"mortality (Aphid mortality) ([2]; 2500 ppm, pipetted into aphid diet, 3 days, in comparison with untreated controls)","mortality (Egg and larval mortality) ([3]; 2500ppm, sprayed onto insect diet, 5 days, in comparison with untreated controls)",mortality at 2500 ppm [1] [%],mortality at 2500 ppm [4] [%],mortality at 2500 ppm [2] [%],mortality at 2500 ppm [3] [%]
"2-chloro-5-[[5-(3,5-dichloro-4-fluoro-phenyl)-5-(trifluoromethyl)-4H-isoxazol-3-yl]amino]-N-[1-(trifluoromethylsulfonyl)azetidin-3-yl]benzamide [I-99]",at least 75%,at least 75%,at least 75%,–,–,–,–
O=C(Nc1ccc(F)cc1F)c1cc(NC2=NOC(c3cc(Cl)cc(Cl)c3)(C(F)(F)F)C2)ccc1Cl (stereo not shown) [I-2],–,–,–,≥ 75,≥ 75,≥ 75,≥ 75
N#CC1(NC(=O)c2cc(NC3=NOC(c4cc(Cl)cc(Cl)c4)(C(F)(F)F)C3)ccc2Cl)CC1 (stereo not shown) [I-3],–,–,–,≥ 75,≥ 75,≥ 75,≥ 75
"O=C(Nc1ccc(F)c(NC(=O)C(F)F)c1F)c1cc(NC2=NOC(c3cc(Cl)cc(Cl)c3)(C(F)(F)F)C2)ccc1Cl (stereo not shown) [I-5, 2-chloro-5-[[5-(3,5-dichlorophenyl)-5-(trifluoromethyl)-4H-isoxazol-3-yl]amino]-N-[3-[(2,2-difluoroacetyl)amino]-2,4-difluoro-phenyl]benzamide]",–,–,–,≥ 75,≥ 75,≥ 75,≥ 75
CC(=O)Nc1c(F)ccc(NC(=O)c2cc(NC3=NOC(c4cc(Cl)cc(Cl)c4)(C(F)(F)F)C3)ccc2Cl)c1F (stereo not shown) [I-6],–,–,–,≥ 75,≥ 75,≥ 75,≥ 75
O=C(Nc1ccc(F)c(NC(=O)C(F)(F)Cl)c1F)c1cc(NC2=NOC(c3cc(Cl)cc(Cl)c3)(C(F)(F)F)C2)ccc1Cl (stereo not shown) [I-7],–,–,–,≥ 75,≥ 75,≥ 75,≥ 75
O=C(Nc1ccc(F)c(NC(=O)C(F)(F)F)c1F)c1cc(NC2=NOC(c3cc(Cl)cc(Cl)c3)(C(F)(F)F)C2)ccc1Cl (stereo not shown) [I-8],–,–,–,≥ 75,≥ 75,≥ 75,≥ 75
O=C(CC(F)(F)F)Nc1c(F)ccc(NC(=O)c2cc(NC3=NOC(c4cc(Cl)cc(Cl)c4)(C(F)(F)F)C3)ccc2Cl)c1F (stereo not shown) [I-9],–,–,–,≥ 75,≥ 75,≥ 75,≥ 75
O=C(CC1CC1)Nc1c(F)ccc(NC(=O)c2cc(NC3=NOC(c4cc(Cl)cc(Cl)c4)(C(F)(F)F)C3)ccc2Cl)c1F (stereo not shown) [I-10],–,–,–,≥ 75,≥ 75,–,≥ 75
"N#CC1(NC(=O)c2c(F)ccc(NC3=NOC(c4cc(Cl)cc(Cl)c4)(C(F)(F)F)C3)c2F)CC1 (stereo not shown) [I-11, N-(1-cyanocyclopropyl)-3-[[5-(3,5-dichlorophenyl)-5-(trifluoromethyl)-4H-isoxazol-3-yl]amino]-2,6-difluoro-benzamide]",–,–,–,≥ 75,≥ 75,–,–
"O=C(Nc1ccc(F)cc1F)c1cccc(NC2=NOC(c3cc(Cl)cc(Cl)c3)(C(F)(F)F)C2)c1F (stereo not shown) [I-13, 3-[[5-(3,5-dichlorophenyl)-5-(trifluoromethyl)-4H-isoxazol-3-yl]amino]-N-(2,4-difluorophenyl)-2-fluoro-benzamide]",–,–,–,≥ 75,≥ 75,≥ 75,≥ 75
O=C(Nc1ccc(F)cc1F)c1cc(NC2=NOC(c3cc(Cl)c(F)c(Cl)c3)(C(F)(F)F)C2)ccc1Cl (stereo not shown) [I-14],–,–,–,≥ 75,≥ 75,≥ 75,≥ 75
O=C(Nc1ccc(F)cc1F)c1cc(NC2=NOC(c3ccc(F)c(C(F)(F)F)c3)(C(F)(F)F)C2)ccc1Cl (stereo not shown) [I-16],–,–,–,≥ 75,≥ 75,≥ 75,≥ 75
"N#CC1(NC(=O)c2cc(N(CC3CC3)C3=NOC(c4cc(Cl)cc(Cl)c4)(C(F)(F)F)C3)ccc2Cl)CC1 (stereo not shown) [I-25, 2-chloro-N-(1-cyanocyclopropyl)-5-[cyclopropylmethyl-[5-(3,5-dichlorophenyl)-5-(trifluoromethyl)-4H-isoxazol-3-yl]amino]benzamide]",–,–,–,≥ 75,≥ 75,–,≥ 75
"CCOC(=O)N(C1=NOC(c2cc(Cl)cc(Cl)c2)(C(F)(F)F)C1)c1ccc(Cl)c(C(=O)NC2(C#N)CC2)c1 (stereo not shown) [I-28, ethyl N-[4-chloro-3-[(1-cyanocyclopropyl)carbamoyl]phenyl]-N-[5-(3,5-dichlorophenyl)-5-(trifluoromethyl)-4H-isoxazol-3-yl]carbamate]",–,–,–,≥ 75,≥ 75,–,≥ 75
O=C(NCc1ccccn1)c1ccc(NC2=NOC(c3cc(Cl)cc(Cl)c3)(C(F)(F)F)C2)cc1Cl (stereo not shown) [I-70],–,–,–,≥ 75,≥ 75,–,≥ 75
CCN1OC[C@@H](NC(=O)c2ccc(NC3=NOC(c4cc(Cl)cc(Cl)c4)(C(F)(F)F)C3)cc2Cl)C1=O (stereo partly shown) [I-71],–,–,–,–,≥ 75,–,–
"CC(C)(C#N)NC(=O)c1cc(NC2=NOC(c3cc(Cl)c(F)c(Cl)c3)(C(F)(F)F)C2)ccc1Cl (stereo not shown) [I-75, 2-chloro-N-(1-cyano-1-methyl-ethyl)-5-[[5-(3,5-dichloro-4-fluoro-phenyl)-5-(trifluoromethyl)-4H-isoxazol-3-yl]amino]benzamide]",–,–,–,≥ 75,–,–,≥ 75
"CCOC(=O)N(C1=NOC(c2cc(Cl)cc(Cl)c2)(C(F)(F)F)C1)c1ccc(Cl)c(C(=O)N(C(=O)OCC)C2(C#N)CC2)c1 (stereo not shown) [I-142, ethyl N-[4-chloro-3-[(1-cyanocyclopropyl)-ethoxycarbonyl-carbamoyl]-phenyl]-N-[5-(3,5-dichlorophenyl)-5-(trifluoromethyl)-4H-isoxazol-3-yl]carbamate]",–,–,–,≥ 75,≥ 75,–,≥ 75
COc1ccc(NC2=NOC(c3cc(Cl)cc(Cl)c3)(C(F)(F)F)C2)cc1C(=O)NC1(C#N)CC1 (stereo not shown) [I-147],–,–,–,–,≥ 75,–,≥ 75
N#CC1(NC(=O)c2cc(NC3=NOC(c4cc(Cl)cc(Cl)c4)(C(F)(F)F)C3)ccc2OC(F)F)CC1 (stereo not shown) [I-148],–,–,–,≥ 75,≥ 75,–,≥ 75
N#CC1(NC(=O)c2cc(NC3=NOC(c4cc(Cl)cc(Cl)c4)(C(F)(F)F)C3)ccc2C(F)(F)F)CC1 (stereo not shown) [I-149],–,–,–,≥ 75,≥ 75,–,≥ 75
O=C(Nc1ccc(F)cc1F)c1cc(NC2=NOC(c3cc(Cl)cc(Cl)c3)(C(F)(F)F)C2)ccc1OC(F)(F)F (stereo not shown) [I-159],–,–,–,≥ 75,≥ 75,–,≥ 75
COc1ccc(NC2=NOC(c3cc(Cl)cc(Cl)c3)(C(F)(F)F)C2)cc1C(=O)NC1CC1 (stereo not shown) [I-170],–,–,–,≥ 75,≥ 75,–,≥ 75
N#Cc1c(NC2=NOC(c3cc(Cl)cc(Cl)c3)(C(F)(F)F)C2)cccc1C(=O)NC1CC1 (stereo not shown) [I-173],–,–,–,≥ 75,≥ 75,–,–
Cc1ccc(NC2=NOC(c3cc(Cl)cc(Cl)c3)(C(F)(F)F)C2)cc1C(=O)NCC(F)(F)F (stereo not shown) [I-176],–,–,–,≥ 75,≥ 75,–,≥ 75
